In ChEMBL document CHEMBL6087389, “Hydrazone-Functionalized trans-A2B-Corroles: Effective Synergy in Photodynamic Therapy of Lung Cancer” (J Med Chem, 2024):
Calls of active or inactive are those of the source. The calls are words filed in the database; no cut-off is given here.

Columns and labels:
[1] = Fluorescence property of the compound in THF assessed as fluorescence quantum yield by photoluminescence quantum yield spectrometer; type: physicochemical
[2] = Fluorescence property of the compound in DMSO assessed as fluorescence quantum yield by photoluminescence quantum yield spectrometer; type: physicochemical
[3] = Induction of singlet oxygen generation in THF assessed as singlet oxygen quantum yield by comparative photoluminescence method; type: functional
[4] = Phototoxicity against human A549 cells assessed as reduction in cell viability preincubated for 24 hrs followed by 7.5 to 10 mW/cm^-2 red light irradiation and measured after 24 hrs by MTT assay; type: functional, cell-based; conditions: A549, light or radiation study
[5] = Phototoxicity against human NCI-H1299 cells assessed as reduction in cell viability preincubated for 24 hrs followed by 7.5 to 10 mW/cm^-2 red light irradiation and measured after 24 hrs by MTT assay; type: functional, cell-based; conditions: NCI-H1299, light or radiation study
A549 [6] = assay: Dark toxicity against human A549 cells assessed as reduction in metabolic activity at <1 uM incubated for 4 hrs by MTT assay; type: cell-based; conditions: a549, 4 h
NCI-H1299 [7] = assay: Dark toxicity against human NCI-H1299 cells assessed as reduction in metabolic activity at <1 uM incubated for 4 hrs by MTT assay; type: cell-based; conditions: nci-h1299, 4 h
A549 [8] = assay: Dark toxicity against human A549 cells assessed as reduction in metabolic activity at 10 uM incubated for 4 hrs by MTT assay; type: cell-based; conditions: a549, 4 h
NCI-H1299 [9] = assay: Dark toxicity against human NCI-H1299 cells assessed as reduction in metabolic activity at 10 uM incubated for 4 hrs by MTT assay; type: cell-based; set-up: scale not given: the % may be the effect or the level left; conditions: nci-h1299, 4 h
A549 [10] = assay: Reduction in hydrogen peroxide production in human A549 cells irradiated with 7.5 to 10 mW/cm^-2 red light for 24 hrs at 100 to 250 nM measured after 2 hrs by DHE and DCFH2-DA staining based fluorimetric analysis; type: functional, cell-based; conditions: dose 100-250 nM
NCI-H1299 [11] = assay: Reduction in hydrogen peroxide production in human NCI-H1299 cells irradiated with 7.5 to 10 mW/cm^-2 red light for 24 hrs at 0 to 250 nM incubated for 2 hrs by DHE and DCFH2-DA staining based fluorimetric analysis; type: functional, cell-based; conditions: dose 0-250 nM
NCI-H1299 [12] = assay: Induction of superoxide anion production in human NCI-H1299 cells irradiated with 7.5 to 10 mW/cm^-2 red light for 24 hrs at 100 to 250 nM incubated for 2 hrs by DHE and DCFH2-DA staining based fluorimetric analysis; type: functional, cell-based; conditions: dose 100-250 nM
A549 [13] = assay: Induction of superoxide anion production in human A549 cells irradiated with 7.5 to 10 mW/cm^-2 red light for 24 hrs at 100 to 250 nM incubated for 2 hrs by DHE and DCFH2-DA staining based fluorimetric analysis; type: functional, cell-based; conditions: dose 100-250 nM
A549 [14] = assay: Induction of apoptosis in human A549 cells assessed as reduction in viable cells at 500 nM preincubated for 24 hrs followed by irradiated with 7.5 to 10 mW/cm^-2 red light for 24 hrs by Annexin V and propidium iodide staining based flow cytometry relative to control; type: functional; conditions: time 48 hrs
A549 [15] = assay: Induction of apoptosis in human A549 cells assessed as reduction in viable cells at 100 nM preincubated for 24 hrs followed by irradiated with 7.5 to 10 mW/cm^-2 red light for 24 hrs by Annexin V and propidium iodide staining based flow cytometry relative to control; type: functional; conditions: time 48 hrs
A549 [16] = assay: Induction of apoptosis in human A549 cells assessed as increase in apoptotic cells at 100 nM preincubated for 24 hrs followed by irradiated with 7.5 to 10 mW/cm^-2 red light for 24 hrs by Annexin V and propidium iodide staining based flow cytometry relative to control; type: functional; conditions: time 48 hrs
A549 [17] = assay: Induction of apoptosis in human A549 cells assessed as increase in apoptotic cells at 500 nM preincubated for 24 hrs followed by irradiated with 7.5 to 10 mW/cm^-2 red light for 24 hrs by Annexin V and propidium iodide staining based flow cytometry relative to control; type: functional; conditions: time 48 hrs
A549 [18] = assay: Induction of apoptosis in human A549 cells assessed as late apoptotic cells at 100 nM preincubated for 24 hrs followed by irradiated with 7.5 to 10 mW/cm^-2 red light for 24 hrs by Annexin V and propidium iodide staining based flow cytometry relative to control; type: functional; conditions: time 48 hrs
A549 [19] = assay: Induction of apoptosis in human A549 cells assessed as late apoptotic cells at 500 nM preincubated for 24 hrs followed by irradiated with 7.5 to 10 mW/cm^-2 red light for 24 hrs by Annexin V and propidium iodide staining based flow cytometry relative to control; type: functional; conditions: time 48 hrs
A549 [20] = assay: Induction of apoptosis in human A549 cells assessed as necrotic cells at 100 nM preincubated for 24 hrs followed by irradiated with 7.5 to 10 mW/cm^-2 red light for 24 hrs by Annexin V and propidium iodide staining based flow cytometry relative to control; type: functional; conditions: time 48 hrs
A549 [21] = assay: Induction of apoptosis in human A549 cells assessed as necrotic cells at 500 nM preincubated for 24 hrs followed by irradiated with 7.5 to 10 mW/cm^-2 red light for 24 hrs by Annexin V and propidium iodide staining based flow cytometry relative to control; type: functional; conditions: time 48 hrs
A549 [22] = assay: Photocytotoxicity in human A549 cells assessed as metabolic activity in presence of sodium azide measured preincubated for 24 hrs followed by irradiated with 7.5 to 10 mW/cm^-2 red light for 24 hrs by MTT assay; type: functional, cell-based; conditions: A549, light or radiation study
NCI-H1299 [23] = assay: Induction of apoptosis in human NCI-H1299 cells assessed as reduction in viability at 100 to 500 nM preincubated for 24 hrs followed by irradiated with 7.5 to 10 mW/cm^-2 red light for 24 hrs by Annexin V and propidium iodide staining based flow cytometry relative to control; type: functional; conditions: dose 100-500 nM, time 48 hrs
NCI-H1299 [24] = assay: Induction of apoptosis in human NCI-H1299 cells assessed as late apoptotic/necrotic cells at 100 nM preincubated for 24 hrs followed by irradiated with 7.5 to 10 mW/cm^-2 red light for 24 hrs by Annexin V and propidium iodide staining based flow cytometry relative to control; type: functional; conditions: time 48 hrs
NCI-H1299 [25] = assay: Induction of apoptosis in human NCI-H1299 cells assessed as late apoptotic/necrotic cells at 500 nM preincubated for 24 hrs followed by irradiated with 7.5 to 10 mW/cm^-2 red light for 24 hrs by Annexin V and propidium iodide staining based flow cytometry relative to control; type: functional; conditions: time 48 hrs
NCI-H1299 [26] = assay: Induction of apoptosis in human NCI-H1299 cells assessed as early apoptotic cells at 100 nM preincubated for 24 hrs followed by irradiated with 7.5 to 10 mW/cm^-2 red light for 24 hrs by Annexin V and propidium iodide staining based flow cytometry relative to control; type: functional; conditions: time 48 hrs
NCI-H1299 [27] = assay: Induction of apoptosis in human NCI-H1299 cells assessed as early apoptotic cells at 500 nM preincubated for 24 hrs followed by irradiated with 7.5 to 10 mW/cm^-2 red light for 24 hrs by Annexin V and propidium iodide staining based flow cytometry relative to control; type: functional; conditions: time 48 hrs
NCI-H1299 [28] = assay: Induction of apoptosis in human NCI-H1299 cells assessed as appearance of necrosis at 100 to 250 nM preincubated for 24 hrs followed by irradiated with 7.5 to 10 mW/cm^-2 red light for 24 hr by May-Grunwald/Giemsa staining by light microscopic analysis; type: functional, cell-based; conditions: dose 100-250 nM, time 48.0 hrs
Mitochondrial membrane [29] = assay: Induction of mitochondrial membrane depolarization in human A549 cells assessed as increase in monomer to aggregate ratio at 100 nM preincubated for 15 mins irradiated with 7.5 to 10 mW/cm^-2 red light by JC-1 fluorescent probe based flow cytometric analysis (reference value: 24.7+/-6.9); type: cell membranes
Mitochondrial membrane [30] = assay: Induction of mitochondrial membrane depolarization in human A549 cells assessed as increase in monomer to aggregate ratio at 250 nM preincubated for 15 mins irradiated with 7.5 to 10 mW/cm^-2 red light by JC-1 fluorescent probe based flow cytometric analysis (reference value: 24.7+/-6.9); type: cell membranes
Mitochondrial membrane [31] = assay: Induction of mitochondrial membrane depolarization in human NCI-H1299 cells assessed as increase in monomer to aggregate ratio at 100 nM preincubated for 15 mins irradiated with 7.5 to 10 mW/cm^-2 red light by JC-1 fluorescent probe based flow cytometric analysis (reference value: 1.0+/-0.00); type: cell membranes
Mitochondrial membrane [32] = assay: Induction of mitochondrial membrane depolarization in human NCI-H1299 cells assessed as increase in monomer to aggregate ratio at 250 nM preincubated for 15 mins irradiated with 7.5 to 10 mW/cm^-2 red light by JC-1 fluorescent probe based flow cytometric analysis (reference value: 1.0+/-0.00); type: cell membranes
A549 [33] = assay: Induction of apoptosis in human A549 cells assessed as early apoptotic cells at 100 to 500 nM preincubated for 24 hrs followed by irradiated with 7.5 to 10 mW/cm^-2 red light for 24 hrs by Annexin V and propidium iodide staining based flow cytometry relative to control; type: functional; conditions: dose 100-500 nM, time 48 hrs
A549 [34] = assay: Induction of apoptosis in human A549 cells assessed as late apoptotic/necrotic cells at 100 to 500 nM preincubated for 24 hrs followed by irradiated with 7.5 to 10 mW/cm^-2 red light for 24 hrs by Annexin V and propidium iodide staining based flow cytometry relative to control; type: functional; conditions: dose 100-500 nM, time 48 hrs
A549 [35] = assay: Induction of apoptosis in human A549 cells assessed as viable cells at 500 nM preincubated for 24 hrs followed by irradiated with 7.5 to 10 mW/cm^-2 red light for 24 hrs by Annexin V and propidium iodide staining based flow cytometry relative to control; type: functional; conditions: A549, light or radiation study, time 48 hrs, read-out: Activity
A549 [36] = assay: Induction of apoptosis in human A549 cells assessed as late apoptotic/necrotic cells at 500 nM preincubated for 24 hrs followed by irradiated with 7.5 to 10 mW/cm^-2 red light for 24 hrs by Annexin V and propidium iodide staining based flow cytometry relative to control; type: functional; conditions: time 48 hrs

Which results are given for `C/C(=N/NC(=O)OC(C)(C)C)c1c2nc(c(-c3ccccc3)c3ccc([nH]3)c3ccc([nH]3)c(-c3ccccc3)c3ccc1[nH]3)C=C2`?
Activity [1]: 0.14; Activity [2]: 0.267; Activity [3]: 0.39; IC50 [4]: 94.9 nM; IC50 [5]: 25 nM; Activity (A549 [6]): Non-toxic; Activity (NCI-H1299 [7]): Non-toxic; Activity (A549 [8]): Non-toxic; Activity (NCI-H1299 [9]): Non-toxic; Activity (A549 [10]): Active; Activity (NCI-H1299 [11]): Active; Activity (NCI-H1299 [12]): Active; Activity (A549 [13]): Active; Activity (A549 [14]): 18%; Activity (A549 [15]): 20.8%; Activity (A549 [16]): 21%; Activity (A549 [17]): 17.5%; Activity (A549 [18]): 35.5%; Activity (A549 [19]): 38%; Activity (A549 [20]): 22.8%; Activity (A549 [21]): 26.5%; IC50 (A549 [22]): 373 nM; Activity (NCI-H1299 [23]): >=75%; Activity (NCI-H1299 [24]): 57.9%; Activity (NCI-H1299 [25]): 28.8%; Activity (NCI-H1299 [26]): 20.1%; Activity (NCI-H1299 [27]): 69%; Activity (NCI-H1299 [28]): Active; Activity (Mitochondrial membrane [29]): 39.7; Activity (Mitochondrial membrane [30]): 47.7; Activity (Mitochondrial membrane [31]): 1.7; Activity (Mitochondrial membrane [32]): 4

Which results are given for `C/C(=N\NS(=O)(=O)c1ccc(C)cc1)c1c2nc(c(-c3ccccc3)c3ccc([nH]3)c3ccc([nH]3)c(-c3ccccc3)c3ccc1[nH]3)C=C2`?
Activity [1]: 0.114; Activity [2]: 0.282; Activity [3]: 0.26; IC50 [4]: 101 nM; IC50 [5]: 52.3 nM; Activity (A549 [6]): Non-toxic; Activity (NCI-H1299 [7]): Non-toxic; Activity (A549 [8]): Non-toxic; Activity (NCI-H1299 [9]): 73.8%; Activity (A549 [15]): 48%; Activity (A549 [33]): 16.9%; Activity (A549 [34]): 24.6%; viability at 0.5 µM (A549 [35]): 2%; Activity (A549 [36]): 92.7%; Activity (NCI-H1299 [23]): >=75%; Activity (NCI-H1299 [24]): 23.2%; Activity (NCI-H1299 [25]): 75.5%; Activity (NCI-H1299 [26]): 12.7%; Activity (NCI-H1299 [27]): 19.8%; Activity (NCI-H1299 [28]): Active
